Key:
[1] = biological target: Poly [ADP-ribose] polymerase 2 (Homo sapiens, UniProt Q9UGN5); test: Biochemical (FP) Assay
Procedure: (§1) PARP1 and PARP2 protein were expressed, purified, and diluted in assay buffer containing 50 mM Tris pH 8.0, 0.001% Triton X-100, 10 mM MgCI2, 150 mM NaCI to a final concentration of 20 nM.

[2] = biological target: Poly [ADP-ribose] polymerase 1 (Homo sapiens, UniProt P09874); test: Biochemical (FP) Assay
Procedure: as §1

Sequence of Poly [ADP-ribose] polymerase 2 (Q9UGN5 whole entry): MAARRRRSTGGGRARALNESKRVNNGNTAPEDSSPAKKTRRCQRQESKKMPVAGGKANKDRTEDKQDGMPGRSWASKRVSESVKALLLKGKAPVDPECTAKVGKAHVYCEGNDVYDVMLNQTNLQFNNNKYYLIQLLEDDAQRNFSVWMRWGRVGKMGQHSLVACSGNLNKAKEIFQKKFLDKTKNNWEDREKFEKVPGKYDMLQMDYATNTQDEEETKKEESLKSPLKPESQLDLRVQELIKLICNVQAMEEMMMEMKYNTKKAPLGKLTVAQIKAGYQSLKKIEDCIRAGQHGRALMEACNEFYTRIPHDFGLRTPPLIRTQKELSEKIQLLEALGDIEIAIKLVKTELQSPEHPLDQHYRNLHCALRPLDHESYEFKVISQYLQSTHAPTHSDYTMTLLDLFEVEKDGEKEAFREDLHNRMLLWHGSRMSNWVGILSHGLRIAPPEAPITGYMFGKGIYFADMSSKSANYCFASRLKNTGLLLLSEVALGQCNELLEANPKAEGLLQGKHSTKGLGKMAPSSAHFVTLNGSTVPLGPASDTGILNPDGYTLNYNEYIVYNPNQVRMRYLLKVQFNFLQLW
Sequence of Poly [ADP-ribose] polymerase 1 (P09874 whole entry): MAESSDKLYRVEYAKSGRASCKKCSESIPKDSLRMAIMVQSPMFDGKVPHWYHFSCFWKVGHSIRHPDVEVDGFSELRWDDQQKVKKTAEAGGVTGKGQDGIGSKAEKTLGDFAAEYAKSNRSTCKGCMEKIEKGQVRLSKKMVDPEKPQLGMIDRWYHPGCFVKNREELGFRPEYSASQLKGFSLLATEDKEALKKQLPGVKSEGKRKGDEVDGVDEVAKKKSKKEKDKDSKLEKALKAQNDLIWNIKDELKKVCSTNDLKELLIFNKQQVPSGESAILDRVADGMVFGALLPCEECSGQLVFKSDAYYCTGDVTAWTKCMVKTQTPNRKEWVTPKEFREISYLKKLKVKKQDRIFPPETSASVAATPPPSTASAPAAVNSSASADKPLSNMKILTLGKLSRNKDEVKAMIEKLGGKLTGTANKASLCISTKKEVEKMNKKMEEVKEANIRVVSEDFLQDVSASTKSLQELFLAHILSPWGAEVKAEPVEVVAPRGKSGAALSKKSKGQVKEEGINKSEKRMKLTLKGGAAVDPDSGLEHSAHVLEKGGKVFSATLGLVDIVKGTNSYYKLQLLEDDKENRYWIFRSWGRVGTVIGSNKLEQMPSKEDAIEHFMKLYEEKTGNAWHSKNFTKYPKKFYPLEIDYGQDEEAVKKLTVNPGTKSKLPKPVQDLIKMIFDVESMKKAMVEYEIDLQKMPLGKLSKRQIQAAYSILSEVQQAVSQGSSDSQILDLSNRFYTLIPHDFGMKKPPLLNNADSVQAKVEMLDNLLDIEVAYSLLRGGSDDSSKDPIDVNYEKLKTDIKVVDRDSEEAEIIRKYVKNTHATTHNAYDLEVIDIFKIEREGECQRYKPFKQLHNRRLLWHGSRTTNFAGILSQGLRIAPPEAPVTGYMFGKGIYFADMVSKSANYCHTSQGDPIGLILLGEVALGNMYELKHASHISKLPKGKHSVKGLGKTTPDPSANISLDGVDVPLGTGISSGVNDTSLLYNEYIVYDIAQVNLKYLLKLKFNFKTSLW

IC50 [1]	IC50 [2]	SMILES
> 100000 nM	4 nM	CNC(=O)c1ccc(N2CCN(Cc3ccc4c5c(c(=O)[nH]c4c3)CCO5)CC2)c(Cl)n1 [US11795173, Comp. Ex. 2]
> 100000 nM	4.3 nM	CNC(=O)c1ccc(N2CCN(Cc3cc(F)c4c5c(c(=O)[nH]c4c3)COC5)CC2)c(F)n1 [US11795173, Comp. Ex. 3]

From BindingDB's records for patent US11795173 (Xinthera, 2023)
